The values that follow come from US7914830B2, “Composition for inhibiting thrombosis” (Taiyo Kagaku Co., Ltd, priority 2003, dated 2011).

In experiment [1] the test system is platelet poor plasma (PPP) separated from human blood. As to the kind of experiment: APTT and heparin-like activity, hibiscus anti-blood coagulant compositions (Test Examples C-1 to C-3). It counts as biochemical. The method, then:
Ten microliters of heparin adjusted to a concentration of 0.05, 0.1, 0.2 or 0.4 U/mL and 40 μL of platelet poor plasma (PPP) separated from human blood were placed in a reaction cuvette, and the components were reacted at 37° C. for 1 minute. Thereafter, 50 μL of an APTT reagent (manufactured by INTERNATIONAL REAGENTS CORPORATION) was added thereto to further react at 37° C. for 2 minutes, and 50 μL of 25 mM calcium chloride was then added. The time period by which plasma was coagulated (APTT; second) was measured with a coagulometer (manufactured by SYSMEX CORPORATION). In order to evaluate the anti-blood coagulant effect of the anti-blood coagulant composition of the present invention, a calculation formula for the heparin-like activity value (U/mg) was obtained from the relationship between the heparin concentration and the APTT of heparin.
Thereafter, 50 μL of an APTT reagent (manufactured by INTERNATIONAL REAGENTS CORPORATION) was added to further react the components at 37° C. for 2 minutes.

The subject of experiment [2] is platelet rich plasma of a normal individual. As to the kind of experiment: Prothrombin time (PT), anti-extrinsic blood coagulant activity, Hizikia fusiforme (Test Examples F-1, F-2). It counts as biochemical, human. The procedure:
The anti-extrinsic blood coagulant activity of the extrinsic blood coagulation preventing composition of the present invention was obtained as follows: Ten microliters of a sample of a heparin test solution adjusted by […] rich plasma of a normal individual using a coagulometer (manufactured by SYSMEX CORPORATION) to react the components at 37° C. for 1 minute. Thereafter, 100 μL of a PT reagent (manufactured by INTERNATIONAL REAGENTS CORPORATION) was added thereto, and the time period by which plasma was coagulated was measured, i.e. PT was measured. From the relationship between the concentration of this heparin test solution and the PT, the following numerical formula for a heparin-like activity value (U/mg) was obtained.
Thereafter, a sample was prepared by diluting the extrinsic blood coagulation preventing composition A of the present invention with distilled water so as to have a concentration of 0.078, 0.156, 0.313, 0.625 or 1.25 mg/mL calculated as a solid content. The PT was measured in the same manner and the resultant value was plugged into the above numerical formula to give a heparin-like activity value relative to heparin (1 U/mL) at each sample concentration.
In addition, a PT ratio was calculated at each sample concentration according to the following equation using a heparin test solution concentration of 0 mg/mL as the control. PT Ratio=PT When Adding Sample/PT of Control(Heparin Test Solution Concentration:0 mg/mL)
The PTs were determined for the extrinsic blood coagulation preventing composition A obtained in Example F-1, the extrinsic blood coagulation preventing compositions B, C, D and E obtained in Example F-2, and the extrinsic blood coagulation preventing composition F obtained in Example F-3 at a concentration of 0.2 mg/mL calculated as a solid content. Thereafter, the resultant value was plugged into the calculation formula for a heparin-like activity value (U/mg) in Test Example F-1, and the heparin-like activity value and the PT ratio of each extrinsic blood coagulation preventing composition were obtained. In addition, a sample was prepared using the supernatant fraction with 80% ethyl alcohol in Example F-2 in the same manner, and the heparin-like activity value and the PT ratio were obtained.

Experiment [3] concerns platelet poor plasma (PPP) separated from human blood. As to the kind of experiment: APTT and heparin-like activity, Hizikia fusiforme thrombus preventing compositions (Test Examples F′-1, F′-2). It counts as biochemical. The procedure:
The thrombus preventing effect of the thrombus preventing composition A of the present invention was evaluated by measuring the APTT with the coagulometer utilizing platelet poor plasma (PPP) separated from human blood.
Ten microliters of a sample of which amount was adjusted so as to have a concentration of the thrombus preventing composition A of the present invention of 0.075, 0.15, 0.3 or 0.5 mg/mL calculated as a solid content, and 40 μL of PPP were placed in a reaction cuvette to react the components at 37° C. for 1 minute. Thereafter, 50 μL of an APTT reagent (manufactured by INTERNATIONAL REAGENTS CORPORATION) was added to further react the components at 37° C. for 2 minutes, and 50 μL of 25 mM calcium chloride was then added thereto. The time period (seconds) by which plasma was coagulated was measured, and defined as APTT.
Here, as the control, APTT was measured using heparin adjusted to have a concentration of 0.05, 0.1, 0.2 and 0.3 U/mL as a sample in the same manner. The following calculation formula for a heparin-like activity value (U/mg) was obtained from this relationship between the concentration of this heparin and APTT of heparin, and the resultant value was plugged into this calculation formula to give a heparin-like activity value relative to heparin (1 U/mL) at each sample concentration.
The APTTs were measured for the thrombus preventing composition A obtained in Example F′-1, the thrombus preventing compositions B, D and E obtained in Example F′-2, and the thrombus preventing composition F obtained in Example F′-3 at a concentration of 0.2 mg/mL calculated as a solid content in the same manner as in Test Example F′-1. Thereafter, the resultant value was plugged into the calculation formula for the heparin-like activity value (U/mg) in Test Example F′-1 to give a heparin-like activity value of each thrombus preventing composition. In addition, a sample was prepared in the same manner for the supernatant fraction with 80% ethanol in Example F′-2, and its heparin-like activity value was obtained.

Experiment [4] shares this test system. The experiment is described as follows: APTT and heparin-like activity, enzymatically treated Hizikia fusiforme compositions (Test Examples F″-1, F″-2). The class given is biochemical. The method, then: The thrombus preventing effect of the composition A for preventing thrombus of the present invention was evaluated by measuring the APTT with a coagulometer (manufactured by SYSMEX CORPORATION) utilizing platelet poor plasma (PPP) separated from human blood.
Ten microliters of a sample of which amount was adjusted so as to have a concentration of 0.075, 0.15, 0.3 or 0.5 mg/mL calculated as a solid content, and 40 μl of PPP were placed in a reaction cuvette to react the components at 37° C. for 1 minute. Thereafter, 50 μL of an APTT reagent (manufactured by INTERNATIONAL REAGENTS CORPORATION) was added thereto to further react the components at 37° C. for 2 minutes, and 50 μL of 25 mM calcium chloride was then added thereto. The time period (second) by which plasma was coagulated was measured, and defined as APTT.
Here, as the control, the APTT was measured in the same manner using heparin adjusted to a concentration of 0.05, 0.1, 0.2 or 0.3 U/mL as a sample. The following calculation formula for a heparin-like activity value (U/mg) was obtained from the relationship between the concentration of heparin and the APTT of heparin. The resultant value was plugged into the calculation formula to give a heparin-like activity value relative to heparin (1 U/mL) at each sample concentration.
The APTTs were measured for the composition A for preventing thrombus obtained in Example F″-1, the compositions B and C for preventing thrombus obtained in Example F″-2, and the comparative composition obtained in Comparative Example F″-1 in the same manner as in Test Example F″-1 at a concentration of 0.2 mg/mL calculated as a solid content. Thereafter, the resultant value was plugged into the calculation formula for a heparin-like activity value (U/mg) in Test Example F″-1, to give a heparin-like activity value of each composition for preventing thrombus.

The test system is the same in experiment [5]. As to the kind of experiment: APTT anti-coagulant activity of carrageenan antithrombotic agents (Test Example G-1). To be noted: for Anti-Coagulant Activity: relative to water control. It counts as biochemical. The procedure:
The anti-coagulant activity of the antithrombotic agent of the present invention was assayed with a coagulometer (manufactured by SYSMEX CORPORATION) utilizing platelet poor plasma (PPP) separated from human blood.
Ten microliters of a sample, 25 microliters of an APTT reagent (manufactured by INTERNATIONAL REAGENTS CORPORATION), and 25 microliters of 10% cephalin were placed into a reaction cuvette to react the components at 37° C. for 3 minutes, and 50 microliters of PPP was placed in the reaction cuvette to react the components for 2 minutes. Finally, 50 microliters of 25 millimolar calcium chloride was added to coagulate the mixture obtained. The time period (second) by which plasma was coagulated was measured, and defined as APTT.
Here, water was used as the control, and the APTT was measured in the same manner. The anti-coagulant activity (%) was calculated from the measured APTT of the sample, relative to that of the control according to the following numerical formula. Anti-Coagulant Activity(%)=((APTT of Sample−APTT of Control)/APTT of Control)×100 […]

Where [6] appears, read: heparin concentration 0.05 U/mL.

As to heparin, the APTT in experiment [1] (setting [6]) is 39.6 s; in experiment [1] (heparin concentration 0.1 U/mL), 50.9 s; in experiment [1] (heparin concentration 0.2 U/mL), 86.4 s; in experiment [1] (heparin concentration 0.4 U/mL), 180.2 s; in experiment [3] (setting [6]), 39.6 s; in experiment [3] (heparin concentration 0.1 U/mL), 50.9 s. Further, the APTT in experiment [3] (heparin concentration 0.2 U/mL) was 86.4 s; in experiment [3] (heparin concentration 0.3 U/mL), 180.2 s; in experiment [4] (setting [6]), 39.6 s; in experiment [4] (heparin concentration 0.1 U/mL), 50.9 s; in experiment [4] (heparin concentration 0.2 U/mL), 86.4 s; in experiment [4] (heparin concentration 0.3 U/mL), 180.2 s. Besides, the PT in experiment [2] (heparin concentration 0.0625 U/mL) came out at 11.6 s; in experiment [2] (heparin concentration 0.125 U/mL) it was 11.8 s; in experiment [2] (heparin concentration 0.25 U/mL), 12.3 s; in experiment [2] (heparin concentration 0.5 U/mL), 13.2 s; in experiment [2] (heparin concentration 1 U/mL), 18.1 s.
Turning to ι-carrageenan, the APTT in experiment [5] (concentration 0.5 mg/mL) was 162 s; in experiment [5] (concentration 2.5 mg/mL), 600 or more sec; in experiment [5] (concentration 5.0 mg/mL), 600 or more sec. The results for the “Anti-Coagulant Activity” value in experiment [5] (concentration 0.5 mg/mL), in experiment [5] (concentration 2.5 mg/mL) and in experiment [5] (concentration 5.0 mg/mL) were 260%, 1200 or more % and 1200 or more %, respectively.
For the substance κ-carrageenan, the APTT is 99 s in experiment [5] (concentration 0.5 mg/mL), 491 s in experiment [5] (concentration 2.5 mg/mL) and 600 or more sec in experiment [5] (concentration 5.0 mg/mL). The figures for the “Anti-Coagulant Activity” value in experiment [5] (concentration 0.5 mg/mL), in experiment [5] (concentration 2.5 mg/mL) and in experiment [5] (concentration 5.0 mg/mL) were 120%, 991% and 1200 or more %, respectively.
λ-carrageenan: the APTT was 398 s in experiment [5] (concentration 0.5 mg/mL), 600 or more sec in experiment [5] (concentration 2.5 mg/mL) and 600 or more sec in experiment [5] (concentration 5.0 mg/mL). In addition, the “Anti-Coagulant Activity” value in experiment [5] (concentration 0.5 mg/mL) is on record as 784%; in experiment [5] (concentration 2.5 mg/mL), 1200 or more %; in experiment [5] (concentration 5.0 mg/mL), 1200 or more %.
